Test results: patent publication US20100197591A1, “4-AMINO-7,8-DIHYDROPYRIDO[4,3-d]PYRIMIDIN-5(6H)-ONE DERIVATIVES” (pfizer Inc, priority 2009, published 2010)

molecular target: T1, Human full-length diacylglycerol:acylCoA acyltransferase 1 (DGAT-1) (Homo sapiens, UniProt O75907); experiment: DGAT-1 Reduced Microsome Multidose Assay, G7329F Human IC50; type: biochemical; settings: crude membrane fraction of Sf9 cells expressing human DGAT-1; [14C]decanoylCoA; apparent IC50, average where tested more than once
T1 construct: Human full-length diacylglycerol:acylCoA acyltransferase 1 (DGAT-1) was expressed in Sf9 insect cells; made in house; host or cells: Sf9 insect cells (baculovirus); crude membrane/microsome fraction
T1 sequence (O75907 1-488): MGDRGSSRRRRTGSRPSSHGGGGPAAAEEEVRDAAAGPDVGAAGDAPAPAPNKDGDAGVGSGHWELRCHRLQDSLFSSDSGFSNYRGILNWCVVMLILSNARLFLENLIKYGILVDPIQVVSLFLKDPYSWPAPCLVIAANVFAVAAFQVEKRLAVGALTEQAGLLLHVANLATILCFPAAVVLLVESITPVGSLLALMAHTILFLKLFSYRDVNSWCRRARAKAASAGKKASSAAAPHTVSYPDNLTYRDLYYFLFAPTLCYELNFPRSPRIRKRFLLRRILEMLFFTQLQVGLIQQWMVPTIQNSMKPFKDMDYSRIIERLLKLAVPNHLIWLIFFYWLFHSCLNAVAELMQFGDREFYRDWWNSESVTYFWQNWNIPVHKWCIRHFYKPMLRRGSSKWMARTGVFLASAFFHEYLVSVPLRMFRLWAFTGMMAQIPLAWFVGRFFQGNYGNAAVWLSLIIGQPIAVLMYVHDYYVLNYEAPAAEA
Method: (§1) Human full-length diacylglycerol:acylCoA acyltransferase 1 (DGAT-1) was expressed in Sf9 insect cells which are then lysed and a crude membrane fraction (105,000×g pellet) was prepared. The DGAT-1 gene is a human DGAT-1 gene described in J Biol Chem 273:26765 (1998) and U.S. Pat. No. 6,100,077.
(§2) In vitro inhibition of DGAT-1 was measured using a modification, further described below, of the assay methodology described in U.S. Pat. No. 6,994,956 B2.
(§3) The cells were cultured as follows. Sf9 cells (20 L) were infected with 4 mL of DGAT-1 Baculovirus Infected Insect Cells (BIIC) for 72 hours in a Wave Bioreactor System 20/50P (Wave Biotec/GE Healthcare).
(§4) Crude DGAT-1 microsomes were prepared as follows. Cell pellets were washed once with ice-cold Dulbecco's phosphate-buffered saline. Cells were collected in tabletop centrifuge (Beckman GS-6KR), 15 minutes, 2000×g, 4° C. Twenty (20) mL of ice-cold Microsome Buffer (MB) was added per 5 g of cell pellet. The suspension was passed through a microfluidizer 3 times (18K psi). The lysate was transferred to centrifuge tubes and centrifuged for 20 minutes at 5000×g (Beckman-Coulter, Inc. Allegra® 64R High-Speed Refrigerated Benchtop Centrifuge, F0650 rotor) at 4° C. The supernatant was transferred to ultracentrifuge tubes and centrifuged at 125,000×g for 1 hour in a Beckman Ti-45 rotor, 4° C. The supernatant fluid was discarded. The pellet was resuspended in 70 mL of MB by sonication. The microsome concentration was determined using Bio-Rad Protein DC Protein Assay. The microsomes were filter sterilized with a 0.22 μm filter. The samples were portioned, flash frozen and stored at −80° C.
(§5) The Microsome Buffer, used for microsome preparation, was prepared by conventional means and contained 125 mM sucrose, 3 mM imidazole, 0.2 μg/mL aprotinin, 0.2 μg/mL leupeptin and 5 mM dithiothreitol (Cleland's reagent), DGAT-1 activity was measured in 384-well format in a total assay volume of 25 μl that contained, Hepes buffer (50 mM, pH 7.5), MgCl2 (10 mM), bovine serum albumin (0.6 mg/ml), [^14C]decanoylCoA (20 μM, 58 Ci/mol) and membranes (25 μg/ml) into which 1,2 dioleoyl-sn-glycerol (75 μM) in acetone has already been incorporated. Inhibitors in DMSO were pre-incubated with membranes before initiating the DGAT-1 reaction by the addition of decanoylCoA. […] The DMSO concentration was 2.5%. The inhibitors were present at a range of eight concentrations to generate an apparent IC50 for each compound. The eight inhibitor concentration employed ranged from 10 μM to 3 nM (from high to low concentration). Specifically, the eight concentrations used were 10 μM, 3 μM, 1 μM, 300 nM, 100 nM, 30 nM, 10 nM and 3 nM.
(§6) Reaction mixtures were neutralized by the addition of 15 μl of tris(hydroxy-methyl)aminomethane (1M, pH 8.0) and then mixed by trituration with 37.5 μl of Microscint™-E (Perkin Elmer). Plates contents were allowed to partition for 15 to 30 min before ^14C was measured in a scintillation spectrometer (Wallac Microbeta Trilux 1450-030 liquid scintillation counter 12 detector in the top-count DPM mode). Percent inhibition of test compounds was computed as […].
(§7) Four separate assays were performed using 4 different methods of analysis. The method of analysis of Assay 1 was the same as Assay 4 (described above) except microsomes were utilized at 25 μg/mL instead of 5 μg/mL. The method of analysis of Assay 2 was the same as Assay 4 (described above) except eleven (11) concentrations of inhibitor were employed instead of eight (8). The method of analysis of Assay 3 was the same as Assay 2 except the compounds were serially diluted in a different laboratory.
(§8) Where this DGAT-1 inhibition assay was performed on a compound more than once, an average is provided for that compound.

IC50 | SMILES
115 nM | COc1nc(N)c2c(n1)CCN(c1ccc(OCC3CC3)cc1)C2=O [Example 9H, 4-amino-6-[4-(cyclopropylmethoxy)phenyl]-2-methoxy-7,8-dihydropyrido[4,3-d]pyrimidin-5(6H)-one]
1400 nM | COc1nc(N)c2c(n1)CCN(c1ccc3nc[nH]c3c1)C2=O [Example 9J, 4-amino-6-(1H-benzimidazol-6-yl)-2-methoxy-7,8-dihydropyrido[4,3-d]pyrimidin-5(6H)-one]
63.2 nM | COc1nc(N)c2c(n1)CCN(c1ccc(C3(C)CCCO3)cc1)C2=O (centres unmarked) [Example 9K, 4-amino-2-methoxy-6-[4-(2-methyltetrahydrofuran-2-yl)phenyl]-7,8-dihydropyrido[4,3-d]pyrimidin-5(6H)-one]
77.4 nM | COc1nc(N)c2c(n1)CCN(c1ccc(CCC(F)(F)F)cc1)C2=O [Example 9L, 4-amino-2-methoxy-6-[4-(3,3,3-trifluoropropyl)phenyl]-7,8-dihydropyrido[4,3-d]pyrimidin-5(6H)-one]
23.9 nM | COc1nc(N)c2c(n1)CCN(c1ccc(SC(C)(C)C)cc1)C2=O [Example 9N, 4-amino-6-[4-(tert-butylthio)phenyl]-2-methoxy-7,8-dihydropyrido[4,3-d]pyrimidin-5(6H)-one]
648 nM | COc1nc(N)c2c(n1)CCN(c1ccc([S+]([O-])C(C)(C)C)cc1)C2=O (centres unmarked) [Example 9O, 4-amino-6-[4-(tert-butylsulfinyl)phenyl]-2-methoxy-7,8-dihydropyrido[4,3-d]pyrimidin-5(6H)-one]
784 nM | COc1nc(N)c2c(n1)CCN(c1ccc(S(=O)(=O)C(C)(C)C)cc1)C2=O [Example 9P, 4-amino-6-[4-(tert-butylsulfonyl)phenyl]-2-methoxy-7,8-dihydropyrido[4,3-d]pyrimidin-5(6H)-one]
58.8 nM | COc1nc(N)c2c(n1)CCN(c1ccc(C(O)C(C)(C)C)cc1)C2=O (centres unmarked) [Example 10A, 4-amino-6-[4-(1-hydroxy-2,2-dimethylpropyl)phenyl]-2-methoxy-7,8-dihydropyrido[4,3-d]pyrimidin-5(6H)-one]
27.9 nM | COc1nc(N)c2c(n1)CCN(c1ccc(C(OC)C(C)(C)C)cc1)C2=O (centres unmarked) [Example 10D, 4-amino-2-methoxy-6-[4-(1-methoxy-2,2-dimethylpropyl)phenyl]-7,8-dihydropyrido[4,3-d]pyrimidin-5(6H)-one]
117 nM | CC(C)(C)c1ccc(N2CCc3ncnc(N)c3C2=O)cc1 [Example 11A, 4-amino-6-(4-tert-butylphenyl)-7,8-dihydropyrido[4,3-d]pyrimidin-5(6H)-one]

SMILES | IC50
COc1nc(N)c2c(n1)CCN(c1ccc(OCC(C)C)cc1)C2=O [Example 9I, 4-amino-6-(4-isobutoxyphenyl)-2-methoxy-7,8-dihydropyrido[4,3-d]pyrimidin-5(6H)-one] | 84.1 nM

molecular target: T1, Human full-length diacylglycerol:acylCoA acyltransferase 1 (DGAT-1); experiment: DGAT-1 Reduced Microsome Multidose Assay, G7829E Human IC50; type: biochemical; settings: crude membrane fraction of Sf9 cells expressing human DGAT-1; [14C]decanoylCoA; terminated with 5 μl of 1.4% phosphoric acid instead of HCl; average where tested more than once
Method: as §1, §2, §3, §4, §5, §6, §7, §8

SMILES | IC50
COc1nc(N)c2c(n1)CCN(c1ccc(C(=O)C(C)(C)C)cc1)C2=O [Example 1F, 4-amino-6-[4-(2,2-dimethylpropanoyl)phenyl]-2-methoxy-7,8-dihydropyrido[4,3-d]pyrimidin-5(6H)-one] | 192 nM
COc1nc(N)c2c(n1)CCN(c1cccc(C(C)(C)CO)c1)C2=O [Example 1K, 4-amino-6-[3-(2-hydroxy-1,1-dimethylethyl)phenyl]-2-methoxy-7,8-dihydropyrido[4,3-d]pyrimidin-5(6H)-one] | 831 nM
COc1nc(N)c2c(n1)CCN(c1ccc(C(C)(C)c3ncco3)cc1)C2=O [Example 1L, 4-amino-2-methoxy-6-{4-[1-methyl-1-(1,3-oxazol-2-yl)ethyl]phenyl}-7,8-dihydropyrido[4,3-d]pyrimidin-5(6H)-one] | 34.8 nM
COc1nc(N)c2c(n1)CCN(c1ccc(C(C)(C)c3cnco3)cc1)C2=O [Example 1M, 4-amino-2-methoxy-6-{4-[1-methyl-1-(1,3-oxazol-5-yl)ethyl]phenyl}-7,8-dihydropyrido[4,3-d]pyrimidin-5(6H)-one] | 11.3 nM
COc1nc(N)c2c(n1)CCN(c1ccc(C(C)(C)c3cc[nH]n3)cc1)C2=O [Example 1N, 4-amino-2-methoxy-6-{4-[1-methyl-1-(1H-pyrazol-3-yl)ethyl]phenyl}-7,8-dihydropyrido[4,3-d]pyrimidin-5(6H)-one] | 31.9 nM
COc1nc(N)c2c(n1)CCN(c1ccc(CC(C)(C)O)cc1)C2=O [Example 1S, 4-amino-6-[4-(2-hydroxy-2-methylpropyl)phenyl]-2-methoxy-7,8-dihydropyrido[4,3-d]pyrimidin-5(6H)-one] | 44.3 nM
COc1nc(N)c2c(n1)CCN(c1ccc3c(c1)COC3(C)C)C2=O [Example 1U, 4-amino-6-(1,1-dimethyl-1,3-dihydro-2-benzofuran-5-yl)-2-methoxy-7,8-dihydropyrido[4,3-d]pyrimidin-5(6H)-one] | 229 nM
COc1nc(N)c2c(n1)CCN(c1ccc(C3(O)CCCCC3)cc1)C2=O [Example 1V, 4-amino-6-[4-(1-hydroxycyclohexyl)phenyl]-2-methoxy-7,8-dihydropyrido[4,3-d]pyrimidin-5(6H)-one] | 113 nM
CCC(O)(CC)c1ccc(N2CCc3nc(OC)nc(N)c3C2=O)cc1 [Example 1W, 4-amino-6-[4-(1-ethyl-1-hydroxypropyl)phenyl]-2-methoxy-7,8-dihydropyrido[4,3-d]pyrimidin-5(6H)-one] | 34 nM

Next, values leading:

IC50 | SMILES
55 nM | COc1nc(N)c2c(n1)CCN(c1ccc(C(C)(C)c3ccon3)cc1)C2=O [Example 3B, 4-amino-6-[4-(1-isoxazol-3-yl-1-methylethyl)phenyl]-2-methoxy-7,8-dihydropyrido[4,3-d]pyrimidin-5(6H)-one]
4.5 nM | COc1nc(N)c2c(n1)CCN(c1ccc(C(C)(C)c3ccno3)cc1)C2=O [Example 3C, 4-amino-6-[4-(1-isoxazol-5-yl-1-methylethyl)phenyl]-2-methoxy-7,8-dihydropyrido[4,3-d]pyrimidin-5(6H)-one]
95.3 nM | COc1nc(N)c2c(n1)CCN(c1ccc(C(C)(C)c3nnnn3C)cc1)C2=O [Example 3Q, 4-amino-2-methoxy-6-{4-[1-methyl-1-(1-methyl-1H-tetrazol-5-yl)ethyl]phenyl}-7,8-dihydropyrido[4,3-d]pyrimidin-5(6H)-one]
